{
  "source": "patent US5939416A",
  "about": "“Benzo (5,6) cycloheptapyridine compounds useful as farnesyl protein transferase inhibitors” (Schering Corporation, priority 1997, dated 1999)",
  "key": {"[1]": {"target": "farnesyl protein transferase (Homo sapiens, UniProt P49354+P49356)", "experiment": "FPT IC50 (inhibition of farnesyl protein transferase, in vitro enzyme assay)", "type": "biochemical", "protocol": "(§1) FPT IC50 (inhibition of farnesyl protein transferase, in vitro enzyme assay), COS Cell IC50 (Cell-Based Assay), GGPT IC50 (inhibition of geranylgeranyl protein transferase, in vitro enzyme assay), Cell Mat Assay, and anti-tumor activity (in vivo anti-tumor studies) are determined by the assay procedures described in WO 95/10516."}, "COS Cell": {"test_system": "COS Cell", "experiment": "COS Cell IC50 (Cell-Based Assay)", "protocol": "as §1"}},
  "data": [
    {"smiles": "O=C1NCC(CC(=O)N2CCC(C3c4ncc(Br)cc4CCc4cc(Cl)cc(Cl)c43)CC2)CO1", "note": "(centres unmarked) [Example 1, 4-(3-Bromo-8,10-dichloro-6,11-dihydro-5H-benzo[5,6]cyclohepta[1,2-b]pyridin-11-yl)-1-[(tetrahydro-2-oxo-2H-1 3-oxazin-5-yl)acetyl]piperidine]", "values": [
      {"measurement": "IC50", "setting": "[1]", "value": 15, "unit": "nM"},
      {"measurement": "IC50", "setting": "COS Cell", "value": 50, "unit": "nM"}
    ]},
    {"smiles": "O=C1NCC(CC(=O)N2CCC(C3c4ncc(Br)cc4CCc4cc(Cl)cc(Br)c43)CC2)CO1", "note": "(centres unmarked) [Example 2, 4-(3,10-Dibromo-8-chloro-6,11-dihydro-5H-benzo[5,6]cyclohepta[1,2-b]pyridin-11-yl)-1-[(tetrahydro-2-oxo-2H-1,3-oxazin-5-yl)acetyl]piperidine]", "values": [
      {"measurement": "IC50", "setting": "[1]", "value": 3.98, "unit": "nM"},
      {"measurement": "IC50", "setting": "COS Cell", "value": 9, "unit": "nM"}
    ]},
    {"smiles": "O=C1N[C@H](C(=O)N2CCC(CC(=O)N3CCC([C@H]4c5ncc(Br)cc5CCc5cc(Cl)cc(Br)c54)CC3)CC2)CO1", "note": "[Example 3]", "values": [
      {"measurement": "IC50", "setting": "[1]", "value": 2.3, "unit": "nM"},
      {"measurement": "IC50", "setting": "COS Cell", "value": 7, "unit": "nM"}
    ]},
    {"smiles": "O=C1NC[C@@H](C(=O)N2CCC(CC(=O)N3CCC([C@H]4c5ncc(Br)cc5CCc5cc(Cl)cc(Br)c54)CC3)CC2)N1", "note": "[Example 4]", "values": [
      {"measurement": "IC50", "setting": "[1]", "value": 1.8, "unit": "nM"},
      {"measurement": "IC50", "setting": "COS Cell", "value": 33, "unit": "nM"}
    ]}
  ]
}
